Test results as given in patent US7018996B2, “Antibiotics AW998A, AW998B, AW998C and AW998D” (Wyeth Holdings Corporation, priority 2002, dated 2006).
Converted amounts (≈) assume the structure as drawn. Like-named read-outs stand apart in the source and are kept apart here. Bridge positions count the residues as written; N and C are the ends. Square brackets hold non-standard residues; d marks the D form. Peptide text beside a SMILES is read from it. * marks the point of attachment. Tetradecenoyl(2E,13-Me) = CC(C)CCCCCCCCC/C=C/C(=O)*; X1 = CC(C)CCCCCCCC/C=C/C(=O)*; Pip = O=C(O)[CH]1CCCCN1; Dap = NC[CH](N)C(=O)O

Columns and labels:
Type in all cases: cell-based
E.coil GC 4560 (imp) = assay: MIC, broth dilution, E.coil GC 4560 (imp); conditions: Escherichia coli, 18 h, read-out: Antimicrobial Activity (MIC)
Protocol: (§1) The minimum inhibitory concentration (MIC), the lowest concentration of the antibiotic which inhibits growth of the test organism, is determined by the broth dilution method using Muller-Hinton II […] (Baltimore Biological Laboratories) following the recommendations of the National Committee for Clinical Laboratory Standards [Methods for dilution antimicrobial susceptibility tests for bacteria that grow aerobically, approved standard M7-A2, National Committee for Clinical Laboratory Standards, Villanova, Pa.].
(§2) An inoculum level of 5×10^5 CFU/mL, and a range of antibiotic concentrations (64–0.06 μg/mL) is used. The MIC is determined after the microtiter plates are incubated for 18 hours at 35° C. in an ambient air incubator. The test organisms include a spectrum of Gram-positive bacteria comprised of Staphylococcus sp., Streptococcus sp. and Enterococcus sp.
(§3) The test organisms also include a spectrum of Gram-negative bacteria comprised of E. coli GC, M. catarrhalis and H. influenzae.
(§4) The in vitro antibacterial activity of AW998A, AW998B, AW998C and AW998D is determined against a spectrum of Gram-positive and Gram-negative bacteria by a standard broth dilution method. Serial dilution of the compounds are made in Mueller-Hinton broth and inoculated with a bacterial suspension. The lowest concentration of compound that inhibited the growth of a bacterial strain after 18 hours of incubation at 35° C. is reported as the minimal inhibitory concentration (MIC) for that strain.

S. aureus GC 2216 (ATCC) = assay: MIC, broth dilution, S. aureus GC 2216 (ATCC); conditions: Staphylococcus aureus, 18 hours at 35° C., read-out: Antimicrobial Activity (MIC)
Protocol: as §1, §2, §4

[1] = system: E. faecalis GC 4555 (ATCC); assay: MIC, broth dilution, E. faecalis GC 4555 (ATCC); conditions: Enterococcus faecalis, 18 hours at 35° C., read-out: Antimicrobial Activity (MIC)
Protocol: as §1, §2, §4

[2] = system: M. catarrhalis GC 6907* (clinical); assay: MIC, broth dilution, M. catarrhalis GC 6907 (clinical); conditions: Moraxella catarrhalis, read-out: Antimicrobial Activity (MIC)
Protocol: as §1, §2, §3, §4

E. coli GC 4559 (wt) = assay: MIC, broth dilution, E. coli GC 4559 (wt); conditions: Escherichia coli, read-out: Antimicrobial Activity (MIC)
Protocol: as §1, §2, §3, §4

[3] = system: H. influenzae GC 6896 <> (ATTC); assay: MIC, broth dilution, H. influenzae GC 6896 (ATTC); conditions: Haemophilus influenzae, read-out: Antimicrobial Activity (MIC)
Protocol: as §1, §2, §3, §4

[4] = system: S. aureus GC 4543 (Smith); assay: MIC, broth dilution, S. aureus GC 4543 (Smith); conditions: Staphylococcus aureus, 18 hours at 35° C., read-out: Antimicrobial Activity (MIC)
Protocol: as §1, §2, §4

S. pneumoniae GC 1894 = assay: MIC, broth dilution, S. pneumoniae GC 1894; conditions: Streptococcus pneumoniae, GC1894, 18 h, 18 hours at 35° C., read-out: Antimicrobial Activity (MIC)
Protocol: as §1, §2, §4

[5] = system: C. albicans GC 3066 (Yeast); assay: MIC, broth dilution, C. albicans GC 3066 (Yeast); conditions: Candida albicans, read-out: Antimicrobial Activity (MIC)
S. aureus GC 1131 (MRSA) = assay: MIC, broth dilution, S. aureus GC 1131 (MRSA); conditions: Staphylococcus aureus, 18 hours at 35° C., read-out: Antimicrobial Activity (MIC)
Protocol: as §1, §2, §4

[6] = system: B. subtilis GC 6344 (168); assay: MIC, broth dilution, B. subtilis GC 6344 (168); conditions: Bacillus subtilis, 18 hours at 35° C., read-out: Antimicrobial Activity (MIC)
Protocol: as §1, §2, §4

[7] = system: E. faecalis GC 2242 (VRE); assay: MIC, broth dilution, E. faecalis GC 2242 (VRE); conditions: Enterococcus faecalis, 18 hours at 35° C., read-out: Antimicrobial Activity (MIC)
Protocol: as §1, §2, §4

[8] = S. pneumoniae GC 1894* (5% LHB)

| Compound | MIC (E.coil GC 4560 (imp)) [µg/mL] | MIC (S. aureus GC 2216 (ATCC)) [µg/mL] | MIC [1] [µg/mL] | MIC ([2]; M. catarrhalis GC 6907* (clinical), 18 hours at 35° C.) [µg/mL] | MIC (E. coli GC 4559 (wt); E. coli GC 4559 (wt), 18 hours at 35° C.) [µg/mL] | MIC ([3]; H. influenzae GC 6896 <> (ATTC), 18 hours at 35° C.) [µg/mL] | MIC [4] [µg/mL] | MIC (S. pneumoniae GC 1894; [8]) [µg/mL] | MIC (S. pneumoniae GC 1894; S. pneumoniae GC 1894+ (THY)) [µg/mL] | MIC ([5]; C. albicans GC 3066 (Yeast), 18 hours at 35° C.) [µg/mL] | MIC (S. aureus GC 1131 (MRSA)) [µg/mL] | MIC [6] [µg/mL] | MIC [7] [µg/mL] | MIC ([2]; 18 h) [µg/mL] | MIC (E. coli GC 4559 (wt); 18 h) [µg/mL] | MIC ([3]; 18 h) [µg/mL] | MIC ([5]; 18 h) [µg/mL] |
| --- | --- | --- | --- | --- | --- | --- | --- | --- | --- | --- | --- | --- | --- | --- | --- | --- | --- |
| CCC(C)C1NC(=O)C(C(C)O)NC(=O)CNC(=O)C(CC(=O)O)NC(=O)CNC(=O)C(CC(=O)O)NC(=O)CNC(=O)C2CCCCN2C(=O)C(NC(=O)C(CC(=O)O)NC(=O)/C=C/CCCCCCCCCC(C)C)CNC(=O)C2CCCN2C1=O (stereo not drawn) [AW998A] ({Tetradecenoyl(2E,13-Me)}-D[Dap][Pip]GDGDGTIP; lactam 2-C; configuration not given here) | 32 (≈ 25.7 µM) | 8 (≈ 6.41 µM) | 32 (≈ 25.7 µM) | > 128 | > 128 | > 128 | 8 (≈ 6.41 µM) | 4 (≈ 3.21 µM) | 2 (≈ 1.6 µM) | 128 (≈ 103 µM) | 16 (≈ 12.8 µM) | 32 (≈ 25.7 µM) | 64 (≈ 51.3 µM) |  |  |  |  |
| CCC(C)C1NC(=O)C(C(C)O)NC(=O)CNC(=O)C(CC(=O)O)NC(=O)CNC(=O)C(CC(=O)O)NC(=O)CNC(=O)C2CCCCN2C(=O)C(NC(=O)C(CC(=O)O)NC(=O)/C=C/CCCCCCCCC(C)C)CNC(=O)C2CCCN2C1=O (stereo not drawn) [AW998C] (X1-D[Dap][Pip]GDGDGTIP; lactam 2-C; configuration not given here) | > 128 | 64 (≈ 51.9 µM) | 128 (≈ 104 µM) |  |  |  | 64 (≈ 51.9 µM) | 8 (≈ 6.49 µM) | 64 (≈ 51.9 µM) |  | 128 (≈ 104 µM) | 128 (≈ 104 µM) | 128 (≈ 104 µM) | > 128 | > 128 | > 128 | > 128 |
| CC(C)CCCCCCCCC/C=C/C(=O)NC(CC(=O)O)C(=O)NC1CNC(=O)C2CCCN2C(=O)C(C(C)C)NC(=O)C(C(C)O)NC(=O)CNC(=O)C(CC(=O)O)NC(=O)CNC(=O)C(CC(=O)O)NC(=O)CNC(=O)C2CCCCN2C1=O (stereo not drawn) [AW998D] ({Tetradecenoyl(2E,13-Me)}-D[Dap][Pip]GDGDGTVP; lactam 2-C; configuration not given here) | > 128 | 128 (≈ 104 µM) | 128 (≈ 104 µM) |  |  |  | 128 (≈ 104 µM) | 16 (≈ 13 µM) | 128 (≈ 104 µM) |  | 128 (≈ 104 µM) | 128 (≈ 104 µM) | 128 (≈ 104 µM) | > 128 | > 128 | > 128 | > 128 |
